{
  "source": "patent US20250351832A1",
  "about": "“PHYTOCHEMICALS AS BIOPESTICIDES AND BIOSTIMULANTS” (KAY BEE BIO ORGANICS PVT. LTD., priority 2024, published 2025)",
  "key": {"Thrips [1]": {"system": "Thrips", "conditions": "Thrips on cotton leaves, dose 1 ml/gm/lit."}, "[2]": {"conditions": "cited from earlier work"}, "Helicoverpa armigera [3]": {"system": "Helicoverpa armigera", "conditions": "Helicoverpa armigera 3rd instar on chickpea plants, dose 1 ml/gm/lit. spray"}, "Aphid [4]": {"system": "Aphid", "conditions": "Aphids on cotton plants, green house, dose 1 ml/gm/lit."}, "tomato seedlings": {"system": "tomato seedlings", "assay": "Response of tomato plants, greenhouse growth (Ex. 30)", "assay_type": "in vivo", "conditions": "tomato seedlings, dose 1 ml/gm/lit"}, "Alternaria alternata [5]": {"system": "Alternaria alternata", "assay": "Alternaria leaf spot/blight on inoculated tomato plants (Ex. 28)", "assay_type": "in vivo", "conditions": "tomato plants, Alternaria alternata; after 7 days; dose 1 ml/gm/lit"}, "Mealy Bug [6]": {"system": "Mealy Bug", "conditions": "Mealy Bug on cotton leaves, dose 1 ml/gm/lit., 48 Hrs."}, "Alternaria alternata [7]": {"system": "Alternaria alternata", "assay": "In vitro poisoned food technique against fungus (Ex. 20)", "assay_type": "cell-based", "conditions": "poisoned food technique, PDA medium, dose 1 ml/gm/lit., after seven days"}, "Helicoverpa armigera [8]": {"system": "Helicoverpa armigera", "conditions": "Helicoverpa armigera on okra fruits, dose 1 ml/gm/lit., 72 Hrs."}, "Spodoptera litura [9]": {"system": "Spodoptera litura", "conditions": "Spodoptera litura on castor leaves, dose 1 ml/gm/lit."}, "Mite [10]": {"system": "Mite", "conditions": "mite on okra plants, green house, dose 1 ml/gm/lit. spray"}, "Thrips [11]": {"system": "Thrips", "conditions": "thrips on cotton plants, greenhouse, dose 1 ml/gm/lit. spray"}, "Spodoptera litura [12]": {"system": "Spodoptera litura", "conditions": "Spodoptera litura 3rd instar on cabbage plants, dose 1 ml/gm/lit. spray"}, "chili seedlings": {"system": "chili seedlings", "assay": "Response of chili plants, greenhouse growth (Ex. 31)", "assay_type": "in vivo", "conditions": "chili seedlings, dose 1 ml/gm/lit"}, "Mealy Bug [13]": {"system": "Mealy Bug", "conditions": "mealy bug on cotton plants, green house, dose 1 ml/gm/lit. spray"}, "Aphid [14]": {"system": "Aphid", "conditions": "Dose 1 ml/gm/lit."}, "Mite [15]": {"system": "Mite", "conditions": "Dose 1 ml/gm/lit."}, "[16]": {"conditions": "48 hrs, corrected for water control"}, "[17]": {"conditions": "Table 13, descriptive, no test described"}, "[18]": {"conditions": "72 hrs, corrected for water control"}, "[19]": {"conditions": "10 insects/treatment, 4 replications"}},
  "note": "Read-outs that look alike come from different tables or passages of the source.",
  "data": [
    {"substance": "Berberine", "values": [
      {"measurement": "Total No. of dead insect at 48 Hrs.", "setting": "Thrips [1]; 10 insects/treatment, 48 hrs after application", "value": 6.50},
      {"measurement": "% Mortality at 48 Hrs.", "setting": "Thrips [1]; 48 hrs after application", "value": 65.00, "unit": "%"},
      {"measurement": "% Corrected Mortality at 48 Hrs.", "setting": "Thrips [1]; [16]", "value": 60.00, "unit": "%"},
      {"measurement": "Antifungal Activity - Mode of action", "setting": "[2]; [17]", "value": "Inhibit multipath mechanisms,"},
      {"measurement": "Antioxidant Activity - Mode of action", "setting": "[2]; [17]", "value": "Reducing Oxidative Stress"},
      {"measurement": "Bactericidal Activity - Mode of action", "setting": "[2]; [17]", "value": "Resulting in DNA damage,"},
      {"measurement": "Insecticidal Activities - Mode of action", "setting": "[2]; [17]", "value": "Disturbed moulting, larval-"},
      {"measurement": "Nematicidal Activity - Mode of action", "setting": "[2]; [17]", "value": "Effective against root knot"},
      {"measurement": "Phytotonic Effect", "setting": "[2]; Table 13, effect on plants, descriptive", "value": "Boost"},
      {"measurement": "% Mortality at 72 Hrs.", "setting": "Helicoverpa armigera [3]; 72 hrs after application", "value": 62.50, "unit": "%"},
      {"measurement": "% Corrected Mortality at 72 Hrs.", "setting": "Helicoverpa armigera [3]; [18]", "value": 62.50, "unit": "%"},
      {"measurement": "Total No. of dead insect at 48 Hrs.", "setting": "Aphid [4]; 10 insects/plant, 10 plants/treatment, 48 hrs", "value": 55.00},
      {"measurement": "% Mortality at 48 Hrs.", "setting": "Aphid [4]; 48 hrs after application", "value": 55.00, "unit": "%"},
      {"measurement": "% Corrected Mortality at 48 Hrs.", "setting": "Aphid [4]; [16]", "value": 47.06, "unit": "%"},
      {"measurement": "Plant Height 5th Day", "setting": "tomato seedlings; 5th day after application", "value": 6.78, "unit": "cm"},
      {"measurement": "Stem Girth 5th Day", "setting": "tomato seedlings; 5th day after application", "value": 2.01, "unit": "mm"},
      {"measurement": "Plant Height 10th Day", "setting": "tomato seedlings; 10th day after application", "value": 7.34, "unit": "cm"},
      {"measurement": "Stem Girth 10th Day", "setting": "tomato seedlings; 10th day after application", "value": 2.25, "unit": "mm"},
      {"measurement": "Plant Height % Increase over pre on 10th Day", "setting": "tomato seedlings; 10th day", "value": 29.91, "unit": "%"},
      {"measurement": "Stem Girth % Increase over pre on 10th Day", "setting": "tomato seedlings; 10th day", "value": 54.11, "unit": "%"},
      {"measurement": "Plant Height Pre", "setting": "tomato seedlings; before application", "value": 5.65, "unit": "cm"},
      {"measurement": "Stem Girth Pre", "setting": "tomato seedlings; before application", "value": 1.46, "unit": "mm"},
      {"measurement": "CCI 5th Day", "setting": "tomato seedlings; 5th day after application", "value": 14.53},
      {"measurement": "CCI % Increase over pre on 10th Day", "setting": "tomato seedlings; 10th day", "value": 24.86, "unit": "%"},
      {"measurement": "Root Length (cm) 10th Day", "setting": "tomato seedlings; 10th day", "value": 4.13, "unit": "cm"},
      {"measurement": "CCI 10th Day", "setting": "tomato seedlings; 10th day after application", "value": 15.67},
      {"measurement": "Root Length % Increase over control", "setting": "tomato seedlings; 10th day, vs water control", "value": 24.12, "unit": "%"},
      {"measurement": "CCI Pre", "setting": "tomato seedlings; pre-application baseline", "value": 12.55},
      {"measurement": "% Disease reduction over Control", "setting": "Alternaria alternata [5]", "value": 52.89, "unit": "%"},
      {"measurement": "Total No. of dead insect at 48 Hrs.", "setting": "Mealy Bug [6]; [19]", "value": 7.50},
      {"measurement": "% Mortality at 48 Hrs.", "setting": "Mealy Bug [6]", "value": 75.00, "unit": "%"},
      {"measurement": "% Corrected Mortality at 48 Hrs.", "setting": "Mealy Bug [6]; corrected for water control", "value": 73.68, "unit": "%"},
      {"measurement": "Mean colony Diameter (mm)", "setting": "Alternaria alternata [7]", "value": 45.50, "unit": "mm"},
      {"measurement": "% Inhibition of growth", "setting": "Alternaria alternata [7]; vs untreated control", "value": 48.30, "unit": "%"},
      {"measurement": "Total No. of dead insect at 72 Hrs.", "setting": "Helicoverpa armigera [8]; [19]", "value": 6.50},
      {"measurement": "% Mortality at 72 Hrs.", "setting": "Helicoverpa armigera [8]", "value": 65.00, "unit": "%"},
      {"measurement": "% Corrected Mortality at 72 Hrs.", "setting": "Helicoverpa armigera [8]; corrected for water control", "value": 65.00, "unit": "%"},
      {"measurement": "Total No. of dead insect at 72 Hrs.", "setting": "Spodoptera litura [9]; 10 insects/treatment, 72 hrs after application", "value": 7.00},
      {"measurement": "% Mortality at 72 Hrs.", "setting": "Spodoptera litura [9]; 72 hrs after application", "value": 70.00, "unit": "%"},
      {"measurement": "% Corrected Mortality at 72 Hrs.", "setting": "Spodoptera litura [9]; [18]", "value": 68.42, "unit": "%"},
      {"measurement": "% Mortality at 48 Hrs.", "setting": "Mite [10]; 48 hrs after application", "value": 45.00, "unit": "%"},
      {"measurement": "Total No. of dead insect at 48 Hrs.", "setting": "Mite [10]; 48 hrs after application", "value": 45.00},
      {"measurement": "% Corrected Mortality at 48 Hrs.", "setting": "Mite [10]; [16]", "value": 42.11, "unit": "%"},
      {"measurement": "% Mortality at 48 Hrs.", "setting": "Thrips [11]; 48 hrs after application", "value": 67.50, "unit": "%"},
      {"measurement": "Total No. of dead insect at 48 Hrs.", "setting": "Thrips [11]; 48 hrs after application", "value": 67.50},
      {"measurement": "% Corrected Mortality at 48 Hrs.", "setting": "Thrips [11]; [16]", "value": 63.89, "unit": "%"},
      {"measurement": "% Mortality at 72 Hrs.", "setting": "Spodoptera litura [12]; 72 hrs after application", "value": 67.50, "unit": "%"},
      {"measurement": "% Corrected Mortality at 72 Hrs.", "setting": "Spodoptera litura [12]; [18]", "value": 65.79, "unit": "%"},
      {"measurement": "CCI 5th Day", "setting": "chili seedlings; 5th day after application", "value": 13.04},
      {"measurement": "Plant Height (cm) 5th Day", "setting": "chili seedlings; 5th day after application", "value": 6.15, "unit": "cm"},
      {"measurement": "CCI % Increase over pre on 10th Day", "setting": "chili seedlings; 10th day", "value": 36.98, "unit": "%"},
      {"measurement": "Plant Height % Increase over pre on 10th Day", "setting": "chili seedlings; 10th day", "value": 50.11, "unit": "%"},
      {"measurement": "Root Lenght (cm) 10th Day", "setting": "chili seedlings; 10th day", "value": 3.11, "unit": "cm"},
      {"measurement": "Stem Girth % Increase over pre on 10th Day", "setting": "chili seedlings; 10th day", "value": 40.15, "unit": "%"},
      {"measurement": "CCI 10th Day", "setting": "chili seedlings; 10th day after application", "value": 14.04},
      {"measurement": "Plant Height (cm) 10th Day", "setting": "chili seedlings; 10th day after application", "value": 6.89, "unit": "cm"},
      {"measurement": "Root Lenght % Increase over control", "setting": "chili seedlings; 10th day, vs water control", "value": 13.75, "unit": "%"},
      {"measurement": "CCI Pre", "setting": "chili seedlings; pre-application baseline", "value": 10.25},
      {"measurement": "Plant Height (cm) Pre", "setting": "chili seedlings; pre-application baseline", "value": 4.59, "unit": "cm"},
      {"measurement": "% Mortality at 48 Hrs.", "setting": "Mealy Bug [13]; 48 hrs after application", "value": 70.00, "unit": "%"},
      {"measurement": "Total No. of dead insect at 48 Hrs.", "setting": "Mealy Bug [13]; 48 hrs after application", "value": 70.00},
      {"measurement": "% Corrected Mortality at 48 Hrs.", "setting": "Mealy Bug [13]; [16]", "value": 66.67, "unit": "%"},
      {"measurement": "Total No. of dead insect at 48 Hrs.", "setting": "Aphid [14]; 10 insects/treatment, 4 replications, cotton leaves", "value": 5.25},
      {"measurement": "% Corrected Mortality at 48 Hrs.", "setting": "Aphid [14]; 48 hrs", "value": 45.71, "unit": "%"},
      {"measurement": "% Mortality at 48 Hrs.", "setting": "Aphid [14]; 48 hrs", "value": 52.50, "unit": "%"},
      {"measurement": "Total No. of dead insect at 48 Hrs.", "setting": "Mite [15]; 10 insects/treatment, 4 replications, okra leaves", "value": 4.75},
      {"measurement": "% Corrected Mortality at 48 Hrs.", "setting": "Mite [15]; 48 hrs", "value": 43.24, "unit": "%"},
      {"measurement": "% Mortality at 48 Hrs.", "setting": "Mite [15]; 48 hrs", "value": 47.50, "unit": "%"}
    ]}
  ]
}
